Laboratory results published in patent publication EP1013664A1, “Antigenic determinants for drug-specific T lymphocytes from drug-allergic patients” (Max-Planck-Gesellschaft zur Förderung der Wissenschaften …, priority 1998, dated 2000).

What was measured:
clone BAM25 = experiment: Cytokine measurement in culture supernatants of clone BAM25; format: cell-based, human; conditions: for cytokine response to the derivative alone: without Pen G
[1] = system: tetanus toxoid-specific T cell clone 1ES4; format: cell-based, human
clone ES5.13 = experiment: Cytokine measurement in culture supernatants of clone ES5.13; format: cell-based, human; conditions: for interference on Pen G-induced IL2 secretion: added together with 0.25 mg/ml of Pen G; for cytokine response to the derivative alone: without Pen G
Procedure: (§1) For cytokine measurement, 10^5 T cells and 5 x 10^4 autologous, irradiated EBV-B cells were mixed in 200 µl of complete RPMI-FCS medium containing appropriate Ag concentration. After overnight incubation, supernatants were collected and tested for the concentration of IL2, IFNγ and IL4. IL2 was quantified on a IL2-dependent CTLL line. IFNγ was measured by a sandwich ELISA as described (12). IL-4 was measured using the Duo-Set ELISA kit provided by Genzyme Diagnostics, Cambridge, MA. Eventually, cells were kept in culture for another 24 h and cellular proliferation was measured by thymidine uptake as described above.
In a first set of experiments we studied the effect of the Pen V and Amp derivatives on the T cell phenotype induced by Pen G on two hapten-specific CD4^+ cell clones.

[2] = system: PBMC from donors allergic to β-lactams; experiment: Flow cytometric analysis of intracellular IFNγ and IL4 production in Pen G-stimulated PBMC cultures; format: cell-based, human; conditions: restimulated with PMA and ionomycin, intracellular staining
Procedure: (§2) Cells at a concentration of 3 x 10^5/w were stimulated with 3-fold dilutions of Pen G from 3 mg/ml to 0.1 µg/ml. After 5 days incubation at 37°C in 5% CO2, the proliferative response was determined, in one of the plates, as the ^3H-thymidine incorporation after 16 h incubation with […] = 37 kBq ^3H-thymidine (Dupont, Boston, MA). Cells were harvested on GF/A-filters (Dunn Labortechnik GmbH, Asbach, Germany) and the incorporation was measured in an automatic β-counter (Inotech, Asbach, Germany). The second plate was further expanded in IL2-containing medium for 4 days. Cells were then pooled for any given Pen G concentration, washed and rested in the absence of IL2. After another 4 days, cells were harvested and analysed for TCR expression by cell surface staining and IL4/IFNγ production by intracellular staining.
Intracellular staining for cytokines was performed following the protocol described by Murphy et al. (12), with few modifications. […] Samples were resuspended in PBS/BSA and analyzed on a FACScan flow cytometer (Becton Dickinson & Co.). […] Results were analyzed using Cellquest software. T cells were detected by standard surface staining using the PE-conjugated anti human TCRαβ antibody (Clone BMA03, Immunotech, Marseille, France). […]

[3] = system: Pen G-specific T cell clones; experiment: Proliferation and IL4/IFNγ secretion of a panel of T cell clones at different Pen G doses; format: cell-based, human
Procedure: T cell clones were generated from Pen G specific T cell lines. Freshly isolated PBMC were stimulated with 1, 0.3, 0.1 mg/ml of Pen G at a density of 2 x 10^5 cells/well in a final volume of 200 µl of complete RPMI containing 5 % HS in 96-well flat bottom culture plates. After 5 days at 37°C and 5 % CO2, 25 U/ml of IL2 was added to the wells. After another 4 days the cultures were pooled, rested for 3 days in the absence of IL2 and subjected to a second round of restimulation using irradiated autologous PBMC as APC and the same dose of Pen G given during the first restimulation. After 3 days the different cultures were again expanded in IL2 containing medium and then cloned by limiting dilution. T cell blasts were seeded at 0.3 cells/well in Terasaki plates (Nunc, Roskilde, Denmark) in the presence of 1 µg/ml PHA and 10^4 irradiated allogeneic PBMC in complete RPMI medium containing 5 % HS and 250 U/ml IL-2. The T cell clones obtained were maintained in culture by periodic stimulation in the presence of irradiated allogeneic PBMC, PHA and IL2.
as §1
In order to evaluate the role of Pen G doses in inducing functional differentiation of established T lymphocytes, a panel of independent Pen G-specific T cell clones was prepared. PBMC from donors two were subjected to two rounds of stimulation, in vitro, with Pen G at concentrations of 1, 0.3 and 0.1 mg/ml in three independent T cell lines. After expansion in IL2-containing medium, each line was independently cloned by limiting dilution. A total of 18 Pen G-specific T cell clones were obtained from donor two and 24 from donor one. The hapten-specific T cell phenotype was induced stimulating each T cell clone with 3-fold dilution of Pen G, from 3 mg/ml to 0.03 mg/ml concentration, in the presence of irradiated autologous EBV-B cells. After 24 h incubation, supernatants were harvested and processed for cytokine measurement, while cells were kept in culture for another 24 h and T cell proliferation was measured by thymidine uptake. We then examined IL4 and IFNγ secretion induced in the presence of the highest and lowest Pen G dose able to trigger cellular proliferation, considering SI values ≥ 2.0 as positive response.

[4] = system: PBMC from donors allergic to β-lactams; experiment: Proliferative response of primary PBMC cultures to Pen G (3H-thymidine incorporation); format: cell-based, human; conditions: 5 days incubation
Procedure: as §2
Patients BAM, CAS and ES participating to this study developed allergic reactions after treatment with β-lactam antibiotics and their clinical data are summarized in Table I. At the time of diagnosis they all presented different symptoms after treatment with β-lactams as well as positive LTT in vitro (Table I; ref. 2, 4 and data not shown). […] After 5 days of incubation, the proliferative response was measured in one of the cultures by thymidine incorporation. […] The intensity of the response was dose-dependent, with maximal proliferation at 0.3 mg/ml of Pen G.

mouse Th1 cells = conditions: through specific inhibition of p38 MAP kinases; cited from earlier work
[5] = added together with 0.25 mg/ml of Pen G, 24 h
[6] = high concentration, together with 0.25 mg/ml of Pen G
[7] = 0.25 mg/ml of Pen G only, 24 h incubation

## CC1(C)S[C@@H]2[C@H](NC(=O)[C@H](N)c3ccccc3)C(=O)N2[C@H]1C(=O)O [Amp, Ampicillin]
Clone BAM25; [5]
  effect on the Pen G-induced cytokine pattern: did not affect
Clone BAM25; [6]
  effect on IFNγ secretion: slight reduction
Clone BAM25
  cytokine response to the derivative alone: None of them responded
[1]
  effect on cytokine secretion: no effect
Clone ES5.13
  interference on Pen G-induced IL2 secretion: no interference
  cytokine response to the derivative alone: None of them responded

## CC1(C)S[C@@H]2[C@H](NC(=O)Cc3ccccc3)C(=O)N2[C@H]1C(=O)O [Pen G, Penicillin G]
Clone BAM25; [7]
  IFNγ (100% value): 6637 pg/mL
  IL2 (100% value): 80.5 SI of CTLL cells
  IL4 (100% value): 5788 pg/mL
Clone BAM25; Pen G 1 mg/ml, behaved as a Th2 clone
  cytokine pattern: secreting IL4 but not IFNγ
[2]
  cells expanded upon in vitro stimulation: mainly IL4^+ and IL4^+IFNγ^+ cells are expanded
Clone ES5.13; [7]
  IL2 (100% value): 40.3 SI
  IL4 (100% value): 5414 pg/mL
[3]; clones from donor one, SI ≥ 2.0 as positive response
  lowest doses capable of triggering cellular proliferation: ≥ 0.3 mg/mL
[3]; clones from donor one, only at the highest dose tested
  dose at which clones could secrete IL4: 3 mg/mL
[3]; clones from donor two
  clones in which lower concentration induced higher level of IFNγ secretion: 14 of the 18
[3]; clones from donor two, number of clones
  clones able to shift from type 0 to type 1 responses: 5
[3]; clones from donor two, SI ≥ 2.0 as positive response
  lowest dose capable of triggering cellular proliferation: 0.03 mg/mL
[3]; clones isolated from donor two
  clones able to shift their phenotype from type 0 to type 1: 35%
[4]
  Pen G concentration of maximal proliferation: 0.3 mg/mL

## CC1(C)S[C@@H]2[C@H](NC(=O)COc3ccccc3)C(=O)N2[C@H]1C(=O)O [Pen V, Penicillin V]
Clone BAM25; [5]
  concentrations at which IFNγ production is completely abrogated: ≥ 0.1 mg/mL
  effect on IL4 secretion: without affecting IL4 secretion
  reduction of the amount of IL2: about 50%
Clone BAM25
  cytokine response to the derivative alone: None of them responded
[1]
  concentration at which IFNγ secretion is completely abrogated: ≥ 0.1 mg/mL
  effect on IL2 production: unaffected
Clone ES5.13
  interference on Pen G-induced IL2 secretion: no interference
  cytokine response to the derivative alone: None of them responded
Clone ES5.13; [6]
  effect on IL4 production: only a marginal reduction

## C[S+]([O-])c1ccc(-c2nc(-c3ccncc3)c(-c3ccc(F)cc3)[nH]2)cc1 (stereo not drawn) [SB203580]
Mouse Th1 cells
  effect on IFNγ: selectively induces IFNγ downmodulation
